The values that follow come from patent publication US20200061007A1, “CANCER STEM CELL PROLIFERATION INHIBITOR” (NATIONAL INSTITUTE OF ADVANCED INDUSTRIAL SCIENCE AND …, priority 2014, published 2020).

For series [1], the system named is human prostate cancer cell line LNCaP. The experiment in a line: Tumor volume, LNCaP/nude mice. The series is classed as in vivo. On the procedure:
(§1) A tumor piece of a human prostate cancer cell line LNCaP containing cells positive for cancer stem cell markers was subcutaneously transplanted to the dorsal part of each of 6-week-old female BALB/cAJc1-nu nude mice (4 mice/group) using a trocar needle. At the time when the tumor volume reached 100 to 200 mm^3, the administration was started. Am80 was orally administered once a day at a dose of 1 mg/kg for 21 continuous days, and DXL was intravenously administered at a dose of 5 mg/kg from Day 1, 3 times at intervals of 4 days. In the combination group, the agents were administered at the same doses as, and by the same administration methods as, those in the cases of administration of each single agent. Measurement of the tumor diameter was carried out until the next day of the completion of the administration (Day 22). The longitudinal diameter and the transverse diameter of the tumor were measured using a caliper, and the tumor volume (mm^3) was determined according to the following formula: longitudinal diameter×transverse diameter^2/2. In the control group, physiological saline was intraperitoneally administered from Day 1, 3 times at intervals of 4 days.

For series [2], the system named is human breast cancer cell line MCF-7. The experiment in a line: Tumor volume, MCF-7/nude mice. It counts as in vivo. On the procedure:
as §1, with “breast” for “prostate”, “MCF-7” for “LNCaP”, “(5” for “(4”, “3.5” for “5”

Series [3] concerns human pancreatic cancer cells containing pancreatic cancer stem cells. The series is described as follows: Growth of subcutaneously transplanted pancreatic cancer in nude mice. As to conditions: Am80 3 mg/kg/day for 1 month, vs control. The series is classed as in vivo. On the procedure:
(§2) Pancreatic cancer cells (1×10^6 cells) containing pancreatic cancer stem cells were subcutaneously transplanted to nude mice. Mice in which tumor formation was found 2 weeks later were subjected to administration of Am80 for 1 month at 3 mg/kg/day.
Pancreatic cancer cells (1×10^6 cells) containing pancreatic cancer stem cells were subcutaneously transplanted to nude mice. Mice in which tumor formation was found 2 weeks later were subjected to daily administration of Am80 at 3 mg/kg/day and administration of gemcitabine at 50 mg/kg at intervals of 3 days for 1 month. […] Gem herein represents gemcitabine.
Pancreatic cancer cells (1×10^6 cells) containing pancreatic cancer stem cells were subcutaneously transplanted to nude mice. Mice in which tumor formation was found 2 weeks later were subjected to daily administration of Am80 at 3 mg/kg/day and administration of VPA at 500 mg/kg at intervals of 3 days for 1 month.

The subject of series [4] is Human Pancreatic Cancer Cell Panc-1 Spheroids. The experiment in a line: ALDH activity (ALDEFLUOR, flow cytometry) in Panc-1 spheroids. As to conditions: suspension culture with Am80 for 1 week. It counts as cell-based. On the procedure: As shown in Example 1, Am80 suppresses formation of cell clusters of the pancreatic cancer cell line in the suspension-culture state, and this might be due to a decrease in the number of the stem cells that act as the seeds of the cell clusters. It is known that the activity of aldehyde dehydrogenase (ALDH) is high in hematopoietic stem cells and progenitor cells, but low in differentiated cells. In view of this, a precursor Bodipy-aminoacetaldehyde (ALDEFLUOR, Stem Cell Technologies) was added to pancreatic cancer cells prepared by performing suspension culture in the presence of Am80 for 1 week, and the number of cells positive for the fluorescence of Bodipy-aminoacetate produced by metabolism by the aldehyde dehydrogenase activity was analyzed by quantification by flow cytometry.

Series [5] is described as follows: Body weight of tumor-bearing nude mice. It counts as in vivo. The conditions noted are these: Am80 3 mg/kg/day for 1 month. On the procedure:
as §2

Series [6] relates to human prostate cancer cell line LNCaP. The experiment in a line: Growth inhibition of LNCaP in vitro. It counts as cell-based. The conditions noted are these: Homo sapiens, 96 hours of exposure, RPMI1640 with 10% FBS. As to the method: A human prostate cancer cell line LNCaP, containing cells positive for cancer stem cell markers, was cultured in RPMI1640 medium supplemented with 10% FBS, and the growth inhibitory action by the combination of Am80 and 5-AZ was studied. […] Thus, in order to study the growth inhibitory action, Am80 was used within the concentration range of 0.125 μM to 1 μM with a common ratio of 2, and 5-AZ was used within the concentration range of 1.56 μM to 12.5 μM with a common ratio of 2. In cases of use of these agents in combination, the growth inhibitory action was studied using these concentrations.

Series [7] deals with Pdx1, glucagon gene expression in human pancreatic cancer cell spheroids. The experiment in a line: Quantitative RT-PCR of pancreatic tissue differentiation markers. The series is classed as cell-based. As to conditions: suspension culture with Am80 for 1 week. On the procedure:
Subsequently, total RNA was extracted from pancreatic cancer cells prepared by performing suspension culture in the presence of Am80 for 1 week, and quantitative RT-PCR was carried out using primers specific to pancreatic tissue-specific differentiation markers.

Broadly, the IC50 is the concentration needed to halve the response being measured.

As to `CC1(C)CCC(C)(C)c2cc(NC(=O)c3ccc(C(=O)O)cc3)ccc21` [Am80, tamibarotene], the “tumor volume Day 1” value is given as 121.3 mm^3 in series [1] (Am80 1 mg/kg oral daily 21 days, DXL 5 mg/kg i.v. 3 times at intervals of 4 days, Day 1) and 155.3 mm^3 in series [2] (Am80 1 mg/kg oral daily 21 days, DXL 3.5 mg/kg i.v. 3 times at intervals of 4 days, Day 1). For the same compound, the “tumor volume Day 5” value turned out to be 162.1 mm^3 in series [1] (Am80 1 mg/kg oral daily, DXL 5 mg/kg i.v., Day 5) and 151.3 mm^3 in series [2] (Am80 1 mg/kg oral daily, DXL 3.5 mg/kg i.v., Day 5). For the same compound, the “tumor volume Day 9” value in series [1] (Am80 1 mg/kg oral daily, DXL 5 mg/kg i.v., Day 9) turned out to be 205.8 mm^3; in series [2] (Am80 1 mg/kg oral daily, DXL 3.5 mg/kg i.v., Day 9), 155.5 mm^3. Besides, the “tumor volume Day 13” value in series [1] (Am80 1 mg/kg oral daily, DXL 5 mg/kg i.v., Day 13) was determined as 282.8 mm^3; in series [2] (Am80 1 mg/kg oral daily, DXL 3.5 mg/kg i.v., Day 13), 208.9 mm^3. In addition, the “tumor volume Day 17” value is 409.9 mm^3 in series [1] (Am80 1 mg/kg oral daily, DXL 5 mg/kg i.v., Day 17) and 229.4 mm^3 in series [2] (Am80 1 mg/kg oral daily, DXL 3.5 mg/kg i.v., Day 17). Further, the “tumor volume Day 22” value is on record as 436.3 mm^3 in series [1] (Am80 1 mg/kg oral daily, DXL 5 mg/kg i.v., Day 22) and 261.4 mm^3 in series [2] (Am80 1 mg/kg oral daily, DXL 3.5 mg/kg i.v., Day 22). In series [3], the “growth of the pancreatic cancer” value is recorded as “could be suppressed in vivo compared to the control”. Also, the “ALDH activity (ALDH-positive cells)” value in series [4] is listed as “concentration-dependent decrease”. In addition, the body weight entry in series [5] is “not influenced”. Moreover, the IC50 in series [6] came to 2000 nM. The “gene expression of Pdx1, glucagon and the like” value in series [7] is recorded as “increased gene expression dependently on the Am80 concentration”.
